Laboratory results: paper PMC11359702, “Synthesis and Biochemical Evaluation of Ethanoanthracenes and Related Compounds: Antiproliferative and Pro-Apoptotic Effects in Chronic Lymphocytic Leukemia (CLL)” (Pharmaceuticals, 2024)
Like-named read-outs stand apart in the source and are kept apart here.

Assays:
RPMI-8226 = test: NCI-60 five-dose assay; assay type: cell-based, human
CAKI-1 = test: NCI-60 five-dose assay; assay type: cell-based, human
Experimental: (§1) A number of our most promising compounds identified through preliminary cell viability testing (23c, 23d, 23f, 23h, 23l, 23m, 23n, 23o, 24f, 24l, 25n and 26n) were selected for NCI drug screening in the 60-cell-line panel. The panel includes nine subcategories based on cancer tissue types, which include leukemia, ovarian, central nervous system, breast, lung, prostate, skin, renal and colon cancer. The compounds were initially assessed in a one-dose assay at a fixed treatment concentration of 10 µM. The compounds selected for further investigation were progressed to a five-dose assay across the concentration ranges of 0.01, 0.1, 1, 10 and 100 µM [72]. The endpoints assessed in the screening protocol were GI50, TGI and LC50 [72].

SN12C = test: NCI-60 five-dose assay; assay type: cell-based, human
Experimental: as §1

HCT-116 = test: NCI-60 five-dose assay; assay type: cell-based, human
Experimental: as §1

BT-549 = test: NCI-60 five-dose assay; assay type: cell-based, human
Experimental: as §1

M14 = test: NCI-60 five-dose assay; assay type: cell-based, human
Experimental: as §1

HCT-2998 = test: NCI-60 five-dose assay; assay type: cell-based, human
Experimental: as §1

786-0 = test: NCI-60 five-dose assay; assay type: cell-based, human
Experimental: as §1

NCI/ADR-RES = test: NCI-60 five-dose assay; assay type: cell-based, human
Experimental: as §1

MDA-MB-435 = test: NCI-60 five-dose assay; assay type: cell-based, human
Experimental: as §1

HCT-15 = test: NCI-60 five-dose assay; assay type: cell-based, human
Experimental: as §1

OVCAR-3 = test: NCI-60 five-dose assay; assay type: cell-based, human
Experimental: as §1

RXF 393 = test: NCI-60 five-dose assay; assay type: cell-based, human
Experimental: as §1

NCI-H552 = test: NCI-60 five-dose assay; assay type: cell-based, human
Experimental: as §1

SK-MEL-2 = test: NCI-60 five-dose assay; assay type: cell-based, human
Experimental: as §1

MALME-3M = test: NCI-60 five-dose assay; assay type: cell-based, human
Experimental: as §1

SF-268 = test: NCI-60 five-dose assay; assay type: cell-based, human
Experimental: as §1

NCI-H460 = test: NCI-60 five-dose assay; assay type: cell-based, human
Experimental: as §1

MCF-7 = test: NCI-60 five-dose assay; assay type: cell-based, human
Experimental: as §1

A498 = test: NCI-60 five-dose assay; assay type: cell-based, human
Experimental: as §1

EKVX = test: NCI-60 five-dose assay; assay type: cell-based, human
Experimental: as §1

COLO205 = test: NCI-60 five-dose assay; assay type: cell-based, human
Experimental: as §1

TK-10 = test: NCI-60 five-dose assay; assay type: cell-based, human
Experimental: as §1

KM12 = test: NCI-60 five-dose assay; assay type: cell-based, human
Experimental: as §1

UACC-257 = test: NCI-60 five-dose assay; assay type: cell-based, human
Experimental: as §1

DU-145 = test: NCI-60 five-dose assay; assay type: cell-based, human
Experimental: as §1

U251 = test: NCI-60 five-dose assay; assay type: cell-based, human
Experimental: as §1

IGROV1 = test: NCI-60 five-dose assay; assay type: cell-based, human
Experimental: as §1

UO-31 = test: NCI-60 five-dose assay; assay type: cell-based, human
Experimental: as §1

HOP-62 = test: NCI-60 five-dose assay; assay type: cell-based, human
Experimental: as §1

OVCAR-4 = test: NCI-60 five-dose assay; assay type: cell-based, human
Experimental: as §1

HT29 = test: NCI-60 five-dose assay; assay type: cell-based, human; conditions: HT29
Experimental: as §1

HS 578T = test: NCI-60 five-dose assay; assay type: cell-based, human
Experimental: as §1

OVCAR-5 = test: NCI-60 five-dose assay; assay type: cell-based, human
Experimental: as §1

A549/ATCC = test: NCI-60 five-dose assay; assay type: cell-based, human
Experimental: as §1

SW-620 = test: NCI-60 five-dose assay; assay type: cell-based, human
Experimental: as §1

ACHN = test: NCI-60 five-dose assay; assay type: cell-based, human
Experimental: as §1

UACC-62 = test: NCI-60 five-dose assay; assay type: cell-based, human
Experimental: as §1

OVCAR-8 = test: NCI-60 five-dose assay; assay type: cell-based, human
Experimental: as §1

SK-OV-3 = test: NCI-60 five-dose assay; assay type: cell-based, human
Experimental: as §1

SNB-19 = test: NCI-60 five-dose assay; assay type: cell-based, human
Experimental: as §1

SK-MEL-28 = test: NCI-60 five-dose assay; assay type: cell-based, human
Experimental: as §1

SK-MEL-5 = test: NCI-60 five-dose assay; assay type: cell-based, human
Experimental: as §1

PC-3 = test: NCI-60 five-dose assay; assay type: cell-based, human
Experimental: as §1

MDA-MB-231/ATCC = test: NCI-60 five-dose assay; assay type: cell-based, human
Experimental: as §1

PGA-1 cells = test: alamarBlue cell viability assay; conditions: for IC50: read-out: PGA-1 IC50; for viability at 10 µM: read-out: cell viability
breast cancer cell lines = test: NCI-60 five-dose assay, breast cancer cell lines; assay type: cell-based, human; conditions: range over breast cancer cell lines
Experimental: as §1

MOLT-4 = test: NCI-60 five-dose assay; assay type: cell-based, human
melanoma cell lines = test: NCI-60 five-dose assay, melanoma cell lines; assay type: cell-based, human; conditions: range over melanoma cell lines
Experimental: as §1

## O=C(/C=C/C12c3ccccc3C(c3ccccc31)C1C(=O)NC(=O)C12)c1ccc(F)cc1 (racemic) [Compound 23h]
RPMI-8226; Homo sapiens, RPMI-8226, RPMI-8226
  GI50: 1.62 µM
RPMI-8226; RPMI-8226
  GI50: 1.16 µM
CAKI-1; Homo sapiens
  GI50: 1.02 µM
SN12C; Homo sapiens
  GI50: 2.34 µM
HCT-116; Homo sapiens
  GI50: 0.537 µM
BT-549; Homo sapiens
  GI50: 1.37 µM
M14; Homo sapiens
  GI50: 2.14 µM
HCT-2998; Homo sapiens
  GI50: 1.7 µM
786-0; Homo sapiens
  GI50: 2.44 µM
NCI/ADR-RES; Homo sapiens
  GI50: 2.16 µM
MDA-MB-435; Homo sapiens
  GI50: 1.93 µM
HCT-15; Homo sapiens
  GI50: 1.19 µM
OVCAR-3; Homo sapiens
  GI50: 1.44 µM
RXF 393; Homo sapiens
  GI50: 1.27 µM
NCI-H552; Homo sapiens
  GI50: 1.74 µM
SK-MEL-2; Homo sapiens
  GI50: 2.48 µM
MALME-3M; Homo sapiens, Malme-3M
  GI50: 1.6 µM
SF-268; Homo sapiens
  GI50: 4.56 µM
NCI-H460; Homo sapiens
  GI50: 1.64 µM
MCF-7; Homo sapiens, MCF7
  GI50: 0.885 µM
A498; Homo sapiens
  GI50: 1.16 µM
EKVX; Homo sapiens
  GI50: 1.85 µM
COLO205; Homo sapiens, COLO 205
  GI50: 1.79 µM
TK-10; Homo sapiens
  GI50: 3.18 µM
KM12; Homo sapiens
  GI50: 2.18 µM
UACC-257; Homo sapiens
  GI50: 2.13 µM
DU-145; Homo sapiens
  GI50: 1.77 µM
U251; Homo sapiens, U-251
  GI50: 1.84 µM
IGROV1; Homo sapiens, IGROV-1
  GI50: 2.1 µM
UO-31; Homo sapiens
  GI50: 1.12 µM
HOP-62; Homo sapiens
  GI50: 2.45 µM
OVCAR-4; Homo sapiens
  GI50: 1.96 µM
HT29; Homo sapiens, HT-29
  GI50: 1.86 µM
HS 578T; Homo sapiens
  GI50: 1.82 µM
OVCAR-5; Homo sapiens
  GI50: 1.6 µM
A549/ATCC; Homo sapiens
  GI50: 2.37 µM
SW-620; Homo sapiens
  GI50: 2.27 µM
ACHN; Homo sapiens
  GI50: 1.39 µM
UACC-62; Homo sapiens
  GI50: 1.66 µM
OVCAR-8; Homo sapiens
  GI50: 1.43 µM
SK-OV-3; Homo sapiens
  GI50: 5.28 µM
SNB-19; Homo sapiens
  GI50: 2.68 µM
SK-MEL-28; Homo sapiens
  GI50: 1.98 µM
SK-MEL-5; Homo sapiens
  GI50: 1.95 µM
PC-3; Homo sapiens
  GI50: 1.42 µM
MDA-MB-231/ATCC; Homo sapiens
  GI50: 1.64 µM
PGA-1 cells; Homo sapiens, 24 h
  IC50: 2.88 µM
  viability at 10 µM: 9%
Breast cancer cell lines; Homo sapiens
  GI50: 0.885 to 1.88 µM
MOLT-4; Homo sapiens, MOLT-4, MOLT-4
  GI50: 0.46 µM
MOLT-4; MOLT-4
  GI50: 0.759 µM
Melanoma cell lines; Homo sapiens
  GI50: 1.6 to 2.48 µM

## O=C(/C=C/C12c3ccccc3C(c3ccccc31)C1C(=O)NC(=O)C12)c1ccc(Cl)cc1 (racemic) [Compound 23l, (E)-9-(3-(4-Chlorophenyl)-3-oxoprop-1-en-1-yl)-9,10-dihydro-9,10-[3,4]epipyrroloanthracene-12,14-dione]
RPMI-8226; RPMI-8226
  GI50: 1.66 µM
CAKI-1
  GI50: 1.24 µM
SN12C
  GI50: 1.56 µM
HCT-116
  GI50: 1.23 µM
BT-549
  GI50: 1.34 µM
M14
  GI50: 1.65 µM
HCT-2998
  GI50: 1.69 µM
786-0
  GI50: 1.73 µM
NCI/ADR-RES
  GI50: 1.77 µM
MDA-MB-435
  GI50: 1.68 µM
HCT-15
  GI50: 1.47 µM
OVCAR-3
  GI50: 1.63 µM
RXF 393
  GI50: 1.2 µM
NCI-H552
  GI50: 1.46 µM
SK-MEL-2
  GI50: 1.81 µM
MALME-3M; MALME-3M
  GI50: 1.51 µM
SF-268
  GI50: 1.99 µM
NCI-H460
  GI50: 1.8 µM
MCF-7
  GI50: 1.34 µM
A498
  GI50: 1.28 µM
EKVX
  GI50: 1.43 µM
COLO205
  GI50: 1.91 µM
TK-10
  GI50: 1.92 µM
KM12
  GI50: 2.14 µM
UACC-257
  GI50: 1.56 µM
DU-145
  GI50: 1.67 µM
U251
  GI50: 1.52 µM
IGROV1
  GI50: 1.67 µM
UO-31
  GI50: 1.28 µM
HOP-62
  GI50: 1.69 µM
OVCAR-4
  GI50: 1.42 µM
HT29
  GI50: 2.27 µM
HS 578T
  GI50: 1.94 µM
OVCAR-5
  GI50: 1.58 µM
A549/ATCC
  GI50: 2.4 µM
SW-620
  GI50: 1.89 µM
ACHN
  GI50: 1.65 µM
UACC-62
  GI50: 1.4 µM
OVCAR-8
  GI50: 1.13 µM
SK-OV-3
  GI50: 1.85 µM
SNB-19
  GI50: 1.58 µM
SK-MEL-28
  GI50: 1.8 µM
SK-MEL-5
  GI50: 1.7 µM
PC-3
  GI50: 1.39 µM
MDA-MB-231/ATCC
  GI50: 1.88 µM
PGA-1 cells; PGA-1, 24 h
  IC50: 3.21 µM
Breast cancer cell lines
  GI50: 1.34 to 1.94 µM
MOLT-4; MOLT-4
  GI50: 1.7 µM
Melanoma cell lines
  GI50: 1.4 to 1.81 µM

## O=C(C=CC12c3ccccc3C(c3ccccc31)C1C(=O)NC(=O)C12)c1ccc(Br)cc1 (stereo not shown) [Compound 23a, 9-(E)-3-(4-Bromophenyl)-3-oxoprop-1-en-1-yl)-9,10-dihydro-9,10-[3,4]epipyrroloanthracene-12,14-dione]
PGA-1 cells; Homo sapiens, 24 h
  IC50: 1.97 µM
  viability at 10 µM: 3%
